What was measured:
barnyardgrass [1] = assay: Test A pre-/postemergence herbicide test; format: in vivo, Echinochloa crus-galli
Method in brief: (§1)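 Plants are held in greenhouse about ten days after treatment, then compared with untreated controls and scored 0 (no effect) to 100 (complete control). Preemergence dosing is a directed soil spray on sown sandy loam; postemergence dosing is spray to runoff at 2–10 cm height.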

large crabgrass [2] = assay: Test A pre-/postemergence herbicide test; format: in vivo, Digitaria sanguinalis
Method in brief: as §1

giant foxtail [3] = assay: Test A pre-/postemergence herbicide test; format: in vivo, Setaria faberi
Method in brief: as §1

morningglory [4] = assay: Test A pre-/postemergence herbicide test; format: in vivo, Ipomoea spp.
Method in brief: as §1

redroot pigweed = assay: Test A pre-/postemergence herbicide test; format: in vivo, Amaranthus retroflexus
Method in brief: as §1

velvetleaf [5] = assay: Test A pre-/postemergence herbicide test; format: in vivo, Abutilon theophrasti
Method in brief: as §1

barnyardgrass [6] = assay: Test B pre-/postemergence herbicide test; format: in vivo, Echinochloa crus-galli; conditions: for Barnyardgrass plant response rating: postemergence, visual rating, scale 0 (no effect) to 100 (complete control)
Method in brief: (§2)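 Flooded paddy rice and barnyardgrass were treated at the 2-leaf stage; upland plantings received compound either on sown seed or on 1- to 4-leaf seedlings. All were kept 13–15 days in a greenhouse and scored visually, 0–100, relative to untreated plants.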

Surinam grass = assay: Test B pre-/postemergence herbicide test; format: in vivo, Urochloa decumbens; conditions: for Surinam Grass plant response rating: postemergence, visual rating, scale 0 (no effect) to 100 (complete control)
Method in brief: (§3)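 Evaluation is visual, comparing treated with control plants on a scale where 0 means no effect and 100 means full control. Treatments were preemergence, or postemergence on seedlings 2–18 cm tall, and held 13–15 days in the greenhouse.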

cocklebur = assay: Test B pre-/postemergence herbicide test; format: in vivo, Xanthium strumarium; conditions: for Cocklebur plant response rating: postemergence, visual rating, scale 0 (no effect) to 100 (complete control)
Method in brief: as §2

corn = assay: Test B pre-/postemergence herbicide test; format: in vivo, Zea mays; conditions: for Corn plant response rating: postemergence, visual rating, scale 0 (no effect) to 100 (complete control)
Method in brief: as §3

large crabgrass [7] = assay: Test B pre-/postemergence herbicide test; format: in vivo, Digitaria sanguinalis; conditions: for Crabgrass, Large plant response rating: postemergence, visual rating, scale 0 (no effect) to 100 (complete control)
Method in brief: as §3

giant foxtail [8] = assay: Test B pre-/postemergence herbicide test; format: in vivo, Setaria faberi; conditions: for Foxtail, Giant plant response rating: postemergence, visual rating, scale 0 (no effect) to 100 (complete control)
Method in brief: as §3

lambsquarters = assay: Test B pre-/postemergence herbicide test; format: in vivo, Chenopodium album; conditions: for Lambsquarters plant response rating: postemergence, visual rating, scale 0 (no effect) to 100 (complete control)
Method in brief: as §3

morningglory [9] = assay: Test B pre-/postemergence herbicide test; format: in vivo, Ipomoea coccinea; conditions: for Morningglory plant response rating: postemergence, visual rating, scale 0 (no effect) to 100 (complete control)
Method in brief: as §2

pigweed = assay: Test B pre-/postemergence herbicide test; format: in vivo, Amaranthus retroflexus; conditions: for Pigweed plant response rating: postemergence, visual rating, scale 0 (no effect) to 100 (complete control)
Method in brief: as §3

velvetleaf [10] = assay: Test B pre-/postemergence herbicide test; format: in vivo, Abutilon theophrasti; conditions: for Velvetleaf plant response rating: postemergence, visual rating, scale 0 (no effect) to 100 (complete control)
Method in brief: as §3

blackgrass = assay: Test B postemergence herbicide test; format: in vivo, Alopecurus myosuroides; conditions: postemergence, visual rating, scale 0 (no effect) to 100 (complete control)
Method in brief: (§4)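 After treating 2-leaf paddy plants or 2–18 cm postemergence plants (1 to 4 leaves) with formulated chemical, researchers kept them in a greenhouse for 13–15 days. Effects were judged visually versus controls: 0 indicates none, 100 total control.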

wheat = assay: Test B postemergence herbicide test; format: in vivo, Triticum aestivum; set-up: key to Wheat plant response rating: 0 = no effect, 100 = complete control; conditions: postemergence, visual rating, scale 0 (no effect) to 100 (complete control)
Method in brief: (§5)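 Visual ratings, 0 (no effect) to 100 (complete control), made versus controls after 13–15 d greenhouse. Paddy plants treated at 2-leaf stage; postemergence plants at 1- to 4-leaf stage, 2–18 cm tall.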

wild oat = assay: Test B postemergence herbicide test; format: in vivo, Avena fatua; conditions: postemergence, visual rating, scale 0 (no effect) to 100 (complete control)
Method in brief: as §5

rice = assay: Test B flooded paddy test; format: in vivo, Oryza sativa; conditions: 1000 g ai/ha, visual rating, scale 0 to 100 (0 no effect, 100 complete control), 13 to 15 days
Method in brief: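 Each value is a visual 0–100 response rating taken against controls 13 to 15 days after treatment in the greenhouse. Plants received formulated chemical postemergence at the 1- to 4-leaf stage or, in flooded paddy, at the 2-leaf stage.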

[11] = system: small flower umbrella sedge; assay: Test B flooded paddy test; format: in vivo, Cyperus difformis; conditions: 1000 g ai/ha, visual rating, scale 0 to 100 (0 no effect, 100 complete control), 13 to 15 days
Method in brief: as §4

ducksalad = assay: Test B flooded paddy test; format: in vivo, Heteranthera limosa; conditions: 1000 g ai/ha, visual rating, scale 0 to 100 (0 no effect, 100 complete control), 13 to 15 days
Method in brief: as §4

barnyardgrass [12] = assay: Test B flooded paddy test; format: in vivo, Echinochloa crus-galli; conditions: 1000 g ai/ha, visual rating, scale 0 to 100 (0 no effect, 100 complete control), 13 to 15 days
Method in brief: as §4

[13] = Postemergence, 500 g ai/ha, 0 to 100 scale, 0 no effect, 100 complete control
[14] = Postemergence, 2000 g ai/ha, 0 to 100 scale, 0 no effect, 100 complete control
[15] = Preemergence, 2000 g ai/ha, visual rating, 0 to 100 scale (0 no effect, 100 complete control)
[16] = preemergence, 500 g ai/ha, visual injury, 0 to 100 scale (0 no effect, 100 complete control)
[17] = 125 g ai/ha, 0 = no effect, 100 = complete control, preemergence
[18] = 500 g ai/ha, visual rating 0-100, 0 no effect, 100 complete control, preemergence

In the case of `CC(=NO)c1cccc(NC(=O)c2cn(C(C)C)nc2C)c1` [Compound 180], the “Barnyardgrass plant response rating” value (barnyardgrass [1]; [13]) is reported as 20, the “Plant response rating, Barnyardgrass” value (barnyardgrass [1]; [14]) is reported as 30 and the “Barnyardgrass plant response rating” value (barnyardgrass [1]; [15]) is reported as 0. The “Barnyardgrass plant response rating” value (barnyardgrass [1]; [16]) was 0, the “Crabgrass, Large plant response rating” value (large crabgrass [2]; [13]) was 20 and the “Plant response rating, Crabgrass, Large” value (large crabgrass [2]; [14]) was 35. The “Crabgrass, Large plant response rating” value (large crabgrass [2]; [15]) was 50, the “Crabgrass, Large plant response rating” value (large crabgrass [2]; [16]) was 10 and the “Foxtail, Giant plant response rating” value (giant foxtail [3]; [13]) was 15. For the same compound, the “Plant response rating, Foxtail, Giant” value (giant foxtail [3]; [14]) was 20, the “Foxtail, Giant plant response rating” value (giant foxtail [3]; [15]) was 10 and the “Foxtail, Giant plant response rating” value (giant foxtail [3]; [16]) was 0. The “Morningglory plant response rating” value (morningglory [4]; [13]) was 10, the “Plant response rating, Morningglory” value (morningglory [4]; [14]) was 15 and the “Morningglory plant response rating” value (morningglory [4]; [15]) was 10. The “Morningglory plant response rating” value (morningglory [4]; [16]) was 0, the “Pigweed plant response rating” value (redroot pigweed; [13]) was 30 and the “Plant response rating, Pigweed” value (redroot pigweed; [14]) was 95. For the same compound, the “Pigweed plant response rating” value (redroot pigweed; [15]) was 90, the “Pigweed plant response rating” value (redroot pigweed; [16]) was 0 and the “Velvetleaf plant response rating” value (velvetleaf [5]; [13]) was 10. For the same compound, the “Plant response rating, Velvetleaf” value (velvetleaf [5]; [14]) was 15, the “Velvetleaf plant response rating” value (velvetleaf [5]; [15]) was 15 and the “Velvetleaf plant response rating” value (velvetleaf [5]; [16]) was 0. The “Barnyardgrass plant response rating (0 to 100 scale)” value (barnyardgrass [6]; [17]) was 0, the “Plant response rating, Barnyardgrass” value (barnyardgrass [6]; [18]) was 0 and the “Barnyardgrass plant response rating” value (barnyardgrass [6]; 125 g ai/ha) was 0. For the same compound, the “Barnyardgrass plant response rating” value (barnyardgrass [6]; 500 g ai/ha) was 0, the “Surinam Grass plant response rating (0 to 100 scale)” value (Surinam grass; [17]) was 0 and the “Plant response rating, Surinam Grass” value (Surinam grass; [18]) was 0. The “Surinam Grass plant response rating” value (Surinam grass; 125 g ai/ha) was 0, the “Surinam Grass plant response rating” value (Surinam grass; 500 g ai/ha) was 0 and the “Cocklebur plant response rating (0 to 100 scale)” value (cocklebur; [17]) was 0. For the same compound, the “Plant response rating, Cocklebur” value (cocklebur; [18]) was 0, the “Cocklebur plant response rating” value (cocklebur; 125 g ai/ha) was 0 and the “Cocklebur plant response rating” value (cocklebur; 500 g ai/ha) was 0. The “Corn plant response rating (0 to 100 scale)” value (corn; [17]) was 0, the “Plant response rating, Corn” value (corn; [18]) was 0 and the “Corn plant response rating” value (corn; 125 g ai/ha) was 0. For the same compound, the “Corn plant response rating” value (corn; 500 g ai/ha) was 0, the “Crabgrass, Large plant response rating (0 to 100 scale)” value (large crabgrass [7]; [17]) was 0 and the “Plant response rating, Crabgrass, Large” value (large crabgrass [7]; [18]) was 0. The “Crabgrass, Large plant response rating” value (large crabgrass [7]; 125 g ai/ha) was 0, the “Crabgrass, Large plant response rating” value (large crabgrass [7]; 500 g ai/ha) was 0 and the “Foxtail, Giant plant response rating (0 to 100 scale)” value (giant foxtail [8]; [17]) was 0. For the same compound, the “Plant response rating, Foxtail, Giant” value (giant foxtail [8]; [18]) was 0, the “Foxtail, Giant plant response rating” value (giant foxtail [8]; 125 g ai/ha) was 0 and the “Foxtail, Giant plant response rating” value (giant foxtail [8]; 500 g ai/ha) was 0. For the same compound, the “Lambsquarters plant response rating (0 to 100 scale)” value (lambsquarters; [17]) was 0, the “Plant response rating, Lambsquarters” value (lambsquarters; [18]) was 0 and the “Lambsquarters plant response rating” value (lambsquarters; 125 g ai/ha) was 0. For the same compound, the “Lambsquarters plant response rating” value (lambsquarters; 500 g ai/ha) was 0, the “Morningglory plant response rating (0 to 100 scale)” value (morningglory [9]; [17]) was 0 and the “Plant response rating, Morningglory” value (morningglory [9]; [18]) was 0. The “Morningglory plant response rating” value (morningglory [9]; 125 g ai/ha) was 0, the “Morningglory plant response rating” value (morningglory [9]; 500 g ai/ha) was 0 and the “Pigweed plant response rating (0 to 100 scale)” value (pigweed; [17]) was 0. For the same compound, the “Plant response rating, Pigweed” value (pigweed; [18]) was 0, the “Pigweed plant response rating” value (pigweed; 125 g ai/ha) was 0 and the “Pigweed plant response rating” value (pigweed; 500 g ai/ha) was 0. For the same compound, the “Velvetleaf plant response rating (0 to 100 scale)” value (velvetleaf [10]; [17]) was 0, the “Plant response rating, Velvetleaf” value (velvetleaf [10]; [18]) was 0 and the “Velvetleaf plant response rating” value (velvetleaf [10]; 125 g ai/ha) was 0. For the same compound, the “Velvetleaf plant response rating” value (velvetleaf [10]; 500 g ai/ha) was 0, the “Blackgrass plant response rating” value (blackgrass; 125 g ai/ha) was 0 and the “Blackgrass plant response rating” value (blackgrass; 500 g ai/ha) was 0. The “Wheat plant response rating” value (wheat; 125 g ai/ha) was 0, the “Wheat plant response rating” value (wheat; 500 g ai/ha) was 0 and the “Oat, Wild plant response rating” value (wild oat; 125 g ai/ha) was 0. For the same compound, the “Oat, Wild plant response rating” value (wild oat; 500 g ai/ha) was 0, the “Rice plant response rating” value (rice) was 0 and the “Sedge, Umbrella plant response rating” value [11] was 0. The “Ducksalad plant response rating” value (ducksalad) was 20 and the “Barnyardgrass plant response rating” value (barnyardgrass [12]) was 20.
